Measurements: PubChem BioAssay (NCI)
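Cultured in 96-well plates, cells were exposed to test compound for 48 hours across five concentrations. Here, GI50 denotes the concentration required for 50% inhibition of growth. TGI: total growth inhibition.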

Key:
Assay in all cases: DTP human tumour cell line panel, 48 h
DU-145 prostate = system: DU-145 prostate
OVCAR-3 ovarian = system: OVCAR-3 ovarian
HL-60(TB) leukemia = system: HL-60(TB) leukemia
CAKI-1 renal = system: CAKI-1 renal
PC-3 prostate = system: PC-3 prostate
MCF7 breast = system: MCF7 breast
OVCAR-4 ovarian = system: OVCAR-4 ovarian
A498 renal = system: A498 renal
UACC-62 melanoma = system: UACC-62 melanoma
SR leukemia = system: SR leukemia

COc1ccc(-c2cn(-c3ccc(OC)c(OC)c3)c(=O)[nH]2)cc1
GI50 (DU-145 prostate): > 100 µM
TGI (DU-145 prostate): > 100 µM
GI50 (OVCAR-3 ovarian): > 100 µM
TGI (OVCAR-3 ovarian): > 100 µM
GI50 (HL-60(TB) leukemia): 36.9 µM
TGI (HL-60(TB) leukemia): > 100 µM
GI50 (CAKI-1 renal): > 100 µM
TGI (CAKI-1 renal): > 100 µM
GI50 (PC-3 prostate): > 100 µM
TGI (PC-3 prostate): > 100 µM
GI50 (MCF7 breast): > 100 µM
TGI (MCF7 breast): > 100 µM
GI50 (OVCAR-4 ovarian): 75.7 µM
TGI (OVCAR-4 ovarian): > 100 µM
GI50 (A498 renal): > 100 µM
TGI (A498 renal): > 100 µM
GI50 (UACC-62 melanoma): > 100 µM
TGI (UACC-62 melanoma): > 100 µM

COc1ccccc1/C=C\C(=O)C1COCN1 (stereo not given)
TGI (DU-145 prostate): 35.6 µM
TGI (OVCAR-3 ovarian): 34.2 µM
TGI (HL-60(TB) leukemia): > 100 µM
TGI (CAKI-1 renal): 42.2 µM
TGI (PC-3 prostate): 29.1 µM
TGI (MCF7 breast): 36.8 µM
TGI (OVCAR-4 ovarian): 53.2 µM
TGI (UACC-62 melanoma): 31.9 µM

C=C1C(=O)O[C@H]2[C@H]1CC/C(COC(=O)/C=C\C(=O)NCc1ccc(Cn3c(=O)sn(CCI)c3=O)cc1)=C\CC[C@@]1(C)O[C@@H]21
GI50 (DU-145 prostate): 3.61 µM
TGI (DU-145 prostate): 13.2 µM
GI50 (OVCAR-3 ovarian): 1.76 µM
TGI (OVCAR-3 ovarian): 3.24 µM
GI50 (HL-60(TB) leukemia): 1.59 µM
TGI (HL-60(TB) leukemia): 5.41 µM
GI50 (CAKI-1 renal): 1.66 µM
TGI (CAKI-1 renal): 3.03 µM
GI50 (PC-3 prostate): 7.37 µM
TGI (PC-3 prostate): 21.5 µM
GI50 (MCF7 breast): 3.37 µM
TGI (MCF7 breast): 25.9 µM
GI50 (OVCAR-4 ovarian): 3.62 µM
TGI (OVCAR-4 ovarian): 17.3 µM
GI50 (A498 renal): 13.9 µM
TGI (A498 renal): 27 µM
GI50 (UACC-62 melanoma): 1.83 µM
TGI (UACC-62 melanoma): 3.86 µM

COc1ccc(-c2cc(-c3ccc(Cl)cc3)nc(NCCCCNc3ccnc4cc(Cl)ccc34)n2)cc1
GI50 (DU-145 prostate): 2.25 µM
TGI (DU-145 prostate): 4.79 µM
GI50 (SR leukemia): 0.708 µM
TGI (SR leukemia): > 100 µM
GI50 (OVCAR-3 ovarian): 1.65 µM
TGI (OVCAR-3 ovarian): 3.11 µM
GI50 (HL-60(TB) leukemia): 5.08 µM
TGI (HL-60(TB) leukemia): 22.1 µM
GI50 (CAKI-1 renal): 10.6 µM
TGI (CAKI-1 renal): 22.6 µM
GI50 (MCF7 breast): 1.82 µM
TGI (MCF7 breast): 3.73 µM
GI50 (OVCAR-4 ovarian): 1.72 µM
TGI (OVCAR-4 ovarian): 3.49 µM
GI50 (A498 renal): 4.17 µM
TGI (A498 renal): 17.4 µM
GI50 (UACC-62 melanoma): 17.8 µM
TGI (UACC-62 melanoma): 35.8 µM

OC1CCCC2CCC[N-]C12.OC1CCCC2CCC[N-]C12.[O]=[V][OH] (stereo not given)
GI50 (DU-145 prostate): 19.7 µM
TGI (DU-145 prostate): > 100 µM
GI50 (OVCAR-3 ovarian): 0.359 µM
TGI (OVCAR-3 ovarian): 2.27 µM
GI50 (HL-60(TB) leukemia): 2.61 µM
TGI (HL-60(TB) leukemia): 8.4 µM
GI50 (CAKI-1 renal): 21.9 µM
TGI (CAKI-1 renal): 85.3 µM
GI50 (PC-3 prostate): 2.59 µM
TGI (PC-3 prostate): 8.63 µM
GI50 (MCF7 breast): 2.87 µM
TGI (MCF7 breast): 10.1 µM
GI50 (OVCAR-4 ovarian): 3.05 µM
TGI (OVCAR-4 ovarian): > 100 µM
GI50 (A498 renal): 11.6 µM
TGI (A498 renal): 97.5 µM
GI50 (UACC-62 melanoma): 3.98 µM
TGI (UACC-62 melanoma): 24.7 µM

CCN(CC)CCN1c2nc3ccccc3cc2Sc2cc3ccccc3nc21
GI50 (DU-145 prostate): 3.59 µM
TGI (DU-145 prostate): 11.3 µM
GI50 (OVCAR-3 ovarian): 1.85 µM
TGI (OVCAR-3 ovarian): 4.9 µM
GI50 (HL-60(TB) leukemia): 1.99 µM
TGI (HL-60(TB) leukemia): 4.21 µM
GI50 (CAKI-1 renal): 1.8 µM
TGI (CAKI-1 renal): 6.11 µM
GI50 (PC-3 prostate): 1.71 µM
TGI (PC-3 prostate): 4.84 µM
GI50 (MCF7 breast): 0.75 µM
TGI (MCF7 breast): 2.1 µM
GI50 (OVCAR-4 ovarian): 2.74 µM
TGI (OVCAR-4 ovarian): 13.4 µM
GI50 (A498 renal): 3.08 µM
TGI (A498 renal): 8.62 µM
GI50 (UACC-62 melanoma): 1.77 µM
TGI (UACC-62 melanoma): 4.37 µM

C#CC1(O)C(COP(=O)(O)OCC2OC(n3cc(F)c(=O)[nH]c3=O)CC2O)OC(n2ccc(N)nc2=O)C1O (stereo not given)
GI50 (DU-145 prostate): < 0.01 µM
TGI (DU-145 prostate): > 100 µM
GI50 (OVCAR-3 ovarian): < 0.01 µM
TGI (OVCAR-3 ovarian): 0.746 µM
GI50 (HL-60(TB) leukemia): < 0.011 µM
GI50 (CAKI-1 renal): < 0.01 µM
GI50 (PC-3 prostate): < 0.0305 µM
TGI (PC-3 prostate): > 69 µM
GI50 (MCF7 breast): < 0.01 µM
TGI (MCF7 breast): > 100 µM
GI50 (A498 renal): < 0.0134 µM
TGI (A498 renal): 0.199 µM
GI50 (UACC-62 melanoma): < 0.0141 µM
TGI (UACC-62 melanoma): 0.372 µM

CCCCCCCCCCCCN=C(N)c1ccc(N2CCN(c3ccc(C(N)=NCCCCCCCCCCCC)cc3)CC2)cc1
GI50 (DU-145 prostate): 3.57 µM
TGI (DU-145 prostate): 14.3 µM
GI50 (SR leukemia): 3.8 µM
TGI (SR leukemia): > 50 µM
GI50 (OVCAR-3 ovarian): 8.66 µM
TGI (OVCAR-3 ovarian): 20.7 µM
GI50 (HL-60(TB) leukemia): 2.15 µM
TGI (HL-60(TB) leukemia): > 50 µM
GI50 (CAKI-1 renal): 32.3 µM
TGI (CAKI-1 renal): > 50 µM
GI50 (PC-3 prostate): 9.02 µM
TGI (PC-3 prostate): 20.2 µM
GI50 (OVCAR-4 ovarian): 8.88 µM
TGI (OVCAR-4 ovarian): 20.9 µM
GI50 (UACC-62 melanoma): 10.5 µM
TGI (UACC-62 melanoma): 21.5 µM

COc1cc2c3c(n(CCCNCCCNCCN)c(=O)c2cc1OC)-c1cc2c(cc1C3=O)OCO2
GI50 (DU-145 prostate): 51.9 µM
TGI (DU-145 prostate): > 100 µM
GI50 (SR leukemia): 9.86 µM
TGI (SR leukemia): 43.9 µM
GI50 (OVCAR-3 ovarian): 19.5 µM
TGI (OVCAR-3 ovarian): 53.5 µM
GI50 (HL-60(TB) leukemia): 46.9 µM
TGI (HL-60(TB) leukemia): > 100 µM
GI50 (CAKI-1 renal): 87.8 µM
TGI (CAKI-1 renal): > 100 µM
GI50 (MCF7 breast): 32.5 µM
TGI (MCF7 breast): > 100 µM
GI50 (OVCAR-4 ovarian): 18.6 µM
TGI (OVCAR-4 ovarian): 55.6 µM
GI50 (A498 renal): > 100 µM
TGI (A498 renal): > 100 µM
GI50 (UACC-62 melanoma): 37.1 µM
TGI (UACC-62 melanoma): > 100 µM

CCCCOc1ccc(/C=N/Nc2cc(C)nc3ccc(Br)cc23)cc1
GI50 (DU-145 prostate): 1.94 µM
TGI (DU-145 prostate): 3.87 µM
GI50 (OVCAR-3 ovarian): 2.06 µM
TGI (OVCAR-3 ovarian): 3.84 µM
GI50 (HL-60(TB) leukemia): 2.02 µM
TGI (HL-60(TB) leukemia): 4.07 µM
GI50 (CAKI-1 renal): 1.71 µM
TGI (CAKI-1 renal): 3.11 µM
GI50 (PC-3 prostate): 1.75 µM
TGI (PC-3 prostate): 3.37 µM
GI50 (MCF7 breast): 1.83 µM
TGI (MCF7 breast): 3.68 µM
GI50 (OVCAR-4 ovarian): 1.67 µM
TGI (OVCAR-4 ovarian): 3.06 µM
GI50 (A498 renal): 1.48 µM
TGI (A498 renal): 2.85 µM
GI50 (UACC-62 melanoma): 1.74 µM
TGI (UACC-62 melanoma): 3.26 µM

CCOC(=O)c1c(C)nc2c(c1N)/C(=C/c1ccccn1)C(=O)N2Cc1ccccc1
GI50 (SR leukemia): 1.37 µM
TGI (SR leukemia): > 50 µM
GI50 (OVCAR-3 ovarian): 0.9 µM
TGI (OVCAR-3 ovarian): 1.71 µM
GI50 (HL-60(TB) leukemia): 1.61 µM
TGI (HL-60(TB) leukemia): > 50 µM
GI50 (PC-3 prostate): 1.17 µM
TGI (PC-3 prostate): 2.64 µM
GI50 (MCF7 breast): 1.38 µM
TGI (MCF7 breast): 4.13 µM
GI50 (OVCAR-4 ovarian): 1.51 µM
TGI (OVCAR-4 ovarian): > 50 µM
GI50 (A498 renal): 1.54 µM
TGI (A498 renal): > 50 µM
GI50 (UACC-62 melanoma): 0.94 µM
TGI (UACC-62 melanoma): 1.96 µM
